Assay results published in patent US20240308992A1 (Biopolar Youtang(Guangdong) Pharmaceutical Co., Ltd., priority 2021, published 2024).

target: T1, Drak2 (Homo sapiens, UniProt O94768); assay: Drak2 activity test, ADP-Glo kinase assay (Promega); type: biochemical; settings: inhibition of Drak2 kinase activity, 2 h room temperature, activity range classes, read-out: IC50_Drak2
T1 sequence (O94768 1-372): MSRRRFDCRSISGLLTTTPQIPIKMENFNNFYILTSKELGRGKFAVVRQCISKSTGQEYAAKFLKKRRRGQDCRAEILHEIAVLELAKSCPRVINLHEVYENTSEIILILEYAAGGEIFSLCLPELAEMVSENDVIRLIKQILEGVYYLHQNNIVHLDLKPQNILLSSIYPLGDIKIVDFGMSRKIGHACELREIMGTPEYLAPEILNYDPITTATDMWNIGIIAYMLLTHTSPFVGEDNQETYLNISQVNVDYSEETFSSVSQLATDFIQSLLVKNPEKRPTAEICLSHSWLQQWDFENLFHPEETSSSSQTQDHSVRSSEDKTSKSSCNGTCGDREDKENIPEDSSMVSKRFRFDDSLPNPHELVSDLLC

Row | IC50 | Structure (SMILES)
1 | 11 to 100 nM | CCCCC(=O)Nc1csc(-c2cncc(-c3ccc(C(=O)Nc4nnco4)c(OC)c3)n2)c1 [Example B23, 2-methoxy-4-(6-(4-pentanamidothiophen-2-yl)pyrazin-2-yl)-N-(1,3,4-oxadiazol-2-yl)benzamide]
2 | 1000 to 10000 nM | CCCCC(=O)Nc1csc(-c2cncc(-c3ccc(C(=O)Nc4nncs4)c(OC)c3)n2)c1 [Example B24, 2-methoxy-4-(6-(4-pentanamidothiophen-2-yl)pyrazin-2-yl)-N-(1,3,4-thiadiazol-2-yl)benzamide]
3 | 11 to 100 nM | COc1cc(-c2cncc(-c3cc(NC(=O)CC4CC4)cs3)n2)ccc1C(=O)Nc1nnnn1C [Example B25, 2-methoxy-4-(6-(4-(2-cyclopropylacetamido)thiophen-2-yl)pyrazin-2-yl)-N-(1-methyl-1H-tetrazol-5-yl)benzamide]
4 | 11 to 100 nM | COc1cc(-c2cncc(-c3cc(NC(=O)CC4CCC4)cs3)n2)ccc1C(=O)Nc1nnnn1C [Example B26, 2-methoxy-4-(6-(4-(2-cyclobutylacetamido)thiophen-2-yl)pyrazin-2-yl)-N-(1-methyl-1H-tetrazol-5-yl)benzamide]
5 | 11 to 100 nM | COc1cc(-c2cncc(-c3cc(NC(=O)CC4CCCC4)cs3)n2)ccc1C(=O)Nc1nnnn1C [Example B27, 2-methoxy-4-(6-(4-(2-cyclopentylacetamido)thiophen-2-yl)pyrazin-2-yl)-N-(1-methyl-1H-tetrazol-5-yl)benzamide]
6 | 101 to 1000 nM | COc1cc(-c2cncc(-c3cc(NC(=O)CC4CCCCC4)cs3)n2)ccc1C(=O)Nc1nnnn1C [Example B28, 2-methoxy-4-(6-(4-(2-cyclohexylacetamido)thiophen-2-yl)pyrazin-2-yl)-N-(1-methyl-1H-tetrazol-5-yl)benzamide]
7 | 11 to 100 nM | CCCCC(=O)Nc1csc(-c2cncc(-c3ccc(C(=O)N4CCOCC4)c(OC)c3)n2)c1 [Example B29, N-(5-(6-(3-methoxy-4-(morpholine-4-carbonyl)phenyl)pyrazin-2-yl)thiophen-3-yl)pentanamide]
8 | 101 to 1000 nM | CCCCC(=O)Nc1csc(-c2cncc(-c3ccc(CN4CCOCC4)c(OC)c3)n2)c1 [Example B30, N-(5-(6-(3-methoxy-4-(morpholinomethyl)phenyl)pyrazin-2-yl)thiophen-3-yl)pentanamide]
9 | 11 to 100 nM | COc1cc(-c2cncc(-c3cc(NC(=O)CC4CC4)cs3)n2)ccc1C(=O)N1CCOCC1 [Example B31, 2-cyclopropyl-N-(5-(6-(3-methoxy-4-(morpholine-4-carbonyl)phenyl)pyrazin-2-yl)thiophen-3-yl)acetamide]
10 | 11 to 100 nM | COc1cc(-c2cncc(-c3cc(NC(=O)CC4CCC4)cs3)n2)ccc1C(=O)N1CCOCC1 [Example B32, 2-cyclobutyl-N-(5-(6-(3-methoxy-4-(morpholine-4-carbonyl)phenyl)pyrazin-2-yl)thiophen-3-yl)acetamide]
11 | 11 to 100 nM | COc1cc(-c2cncc(-c3cc(NC(=O)CC4CCCC4)cs3)n2)ccc1C(=O)N1CCOCC1 [Example B33, 2-cyclopentyl-N-(5-(6-(3-methoxy-4-(morpholine-4-carbonyl)phenyl)pyrazin-2-yl)thiophen-3-yl)acetamide]
12 | 101 to 1000 nM | COc1cc(-c2cncc(-c3cc(NC(=O)CC4CC4)cs3)n2)ccc1CN1CCOCC1 [Example B34, 2-cyclopropyl-N-(5-(6-(3-methoxy-4-(morpholinomethyl)phenyl)pyrazin-2-yl)thiophen-3-yl)acetamide]
13 | 101 to 1000 nM | COc1cc(-c2cncc(-c3cc(NC(=O)CC4CCC4)cs3)n2)ccc1CN1CCOCC1 [Example B35, 2-cyclobutyl-N-(5-(6-(3-methoxy-4-(morpholinomethyl)phenyl)pyrazin-2-yl)thiophen-3-yl)acetamide]
14 | 101 to 1000 nM | COc1cc(-c2cncc(-c3cc(NC(=O)CC4CCCC4)cs3)n2)ccc1CN1CCOCC1 [Example B36, 2-cyclopentyl-N-(5-(6-(3-methoxy-4-(morpholinomethyl)phenyl)pyrazin-2-yl)thiophen-3-yl)acetamide]
